Measurements as given in publication PMC9939733 (The Journal of Biological Chemistry, 2023).
Changes are numbered by the printed parent chain. Each block holds one compound with its values, some of them ahead of it.

Assays:
Format in all cases: biochemical
WT IDH1 [1] = biological target: T1, WT IDH1 (Homo sapiens, UniProt O75874); assay: Absorbance assay, WT activity in the presence of equimolar DL-isocitrate (inhibition); settings: […] isocitrate and […] test compound, 75 μM NADP+, 2.0 nM WT IDH1
T1 construct: made in house; host or cells: Escherichia coli BL21(DE3) pLyS
Experimental: (§1) Compounds were dispensed using a CyBio SDW-CW CyBi-Well Simultaneous Pipettor and assay started using a ThermoFisher Multidrop Combi reagent dispenser.
(§2) Reactions were performed as technical quadruplicates.

WT IDH2 [2] = biological target: T2, WT IDH2 (Homo sapiens, UniProt P48735); assay: as above; settings: […] isocitrate and […] test compound, 75 μM NADP+, 2.0 nM WT IDH2
T2 construct: made in house; host or cells: Sf21 insect cells (cell pellets prepared at Evotec)
T2 sequence (P48735 40-452): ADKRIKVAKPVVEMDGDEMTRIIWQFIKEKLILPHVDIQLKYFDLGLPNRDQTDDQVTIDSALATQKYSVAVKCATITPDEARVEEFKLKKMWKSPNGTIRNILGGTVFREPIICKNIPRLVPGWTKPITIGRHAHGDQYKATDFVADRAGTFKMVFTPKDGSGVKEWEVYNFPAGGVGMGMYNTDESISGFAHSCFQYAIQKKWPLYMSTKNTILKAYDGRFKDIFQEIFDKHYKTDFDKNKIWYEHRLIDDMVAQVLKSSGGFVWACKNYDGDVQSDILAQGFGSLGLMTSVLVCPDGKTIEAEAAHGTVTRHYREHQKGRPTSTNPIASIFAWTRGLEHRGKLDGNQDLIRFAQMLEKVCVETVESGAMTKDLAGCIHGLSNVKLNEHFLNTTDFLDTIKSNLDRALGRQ
Experimental: as §1, §2

R140Q IDH2 = biological target: T3, R140Q IDH2 (Homo sapiens, UniProt P48735, R140Q); assay: Absorbance assay, variant activity in the presence of equimolar 2OG (inhibition screen); settings: 6.0 mM 2OG and 6.0 mM test compound, 0.03 μM R140Q IDH2, 50 μM NADPH
T3 construct: made in house; host or cells: Sf21 insect cells (cell pellets prepared at Evotec)
T3 sequence (P48735 40-452 R140Q): T2 sequence (P48735 40-452) with R101Q
Experimental: as §1, §2

R172K IDH2 = biological target: T4, R172K IDH2 (Homo sapiens, UniProt P48735, R172K); assay: as above; settings: 1.0 mM 2OG and 1.0 mM test compound, 0.03 μM R172K IDH2, 50 μM NADPH
T4 construct: made in house; host or cells: Sf21 insect cells (cell pellets prepared at Evotec)
T4 sequence (P48735 40-452 R172K): T2 sequence (P48735 40-452) with R133K
Experimental: as §1, §2

R132H IDH1 = R132H IDH1 (Homo sapiens, UniProt O75874, R132H); assay: as above; design: made in house; host or cells: Escherichia coli BL21(DE3) pLyS; settings: […] 2OG and […] test compound, 0.03 μM R132H IDH1, 50 μM NADPH
Experimental: as §1, §2

WT IDH1 [3] = biological target: T1, WT IDH1; assay: Absorbance assay, substrate activity in the absence of DL-isocitrate; settings: no DL-isocitrate; […] test compound, 75 μM NADP+, 2.0 nM WT IDH1; compared to DL-isocitrate
Experimental: as §1, §2

WT IDH2 [4] = biological target: T2, WT IDH2; assay: as above; settings: no DL-isocitrate; […] test compound, 75 μM NADP+, 2.0 nM WT IDH2; compared to DL-isocitrate
Experimental: as §1, §2

R132H IDH1, sequence (O75874 whole entry R132H): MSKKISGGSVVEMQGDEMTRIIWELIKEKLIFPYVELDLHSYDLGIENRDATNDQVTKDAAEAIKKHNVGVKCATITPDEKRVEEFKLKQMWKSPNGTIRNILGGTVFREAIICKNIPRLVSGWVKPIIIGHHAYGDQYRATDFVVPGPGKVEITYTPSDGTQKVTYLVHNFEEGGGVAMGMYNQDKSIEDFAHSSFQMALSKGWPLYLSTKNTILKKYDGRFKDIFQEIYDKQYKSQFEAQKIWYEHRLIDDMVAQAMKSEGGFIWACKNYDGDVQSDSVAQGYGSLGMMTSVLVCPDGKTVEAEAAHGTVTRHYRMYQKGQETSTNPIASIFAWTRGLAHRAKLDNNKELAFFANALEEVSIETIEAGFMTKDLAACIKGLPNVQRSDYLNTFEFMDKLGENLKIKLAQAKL
T1 sequence (O75874 whole entry): as the sequence (O75874 whole entry R132H) above, with H132R counted along it

Compound: O=C(O)C(=O)c1ccc(C(=O)O)cc1 [compound 30]
activity [%] (%-substrate conversion after 20 min incubation) (WT IDH1 [1]): 101±2%
activity [%] (%-substrate conversion after 20 min incubation) (WT IDH2 [2]): 100±4%
activity [%] (%-substrate conversion after 20 min incubation) (R140Q IDH2): 94 ± 3%
activity [%] (%-substrate conversion after 20 min incubation) (R172K IDH2): 110 ± 8%
activity [%] (%-substrate conversion after 20 min incubation) (R132H IDH1): 103 ± 2%

Compound: O=C(O)C(=O)c1cccc(C(=O)O)c1 [compound 29]
activity [%] (%-substrate conversion after 20 min incubation) (WT IDH1 [1]): 94±2%
activity [%] (%-substrate conversion after 20 min incubation) (WT IDH2 [2]): 99±1%
activity [%] (%-substrate conversion after 20 min incubation) (R140Q IDH2): 95 ± 7%
activity [%] (%-substrate conversion after 20 min incubation) (R172K IDH2): 93 ± 7%
activity [%] (%-substrate conversion after 20 min incubation) (R132H IDH1): 88 ± 2%

Compound: O=C(O)C(=O)CC(Cc1ccc2ccccc2c1)C(=O)O (racemic) [compound 20]
activity [%] (%-substrate conversion after 20 min incubation) (WT IDH1 [1]): 97±3%
activity [%] (%-substrate conversion after 20 min incubation) (WT IDH2 [2]): 97±4%
activity [%] (%-substrate conversion after 20 min incubation) (R140Q IDH2): 73 ± 4%
activity [%] (%-substrate conversion after 20 min incubation) (R172K IDH2): 51 ± 1%
activity [%] (%-substrate conversion after 20 min incubation) (R132H IDH1): 31 ± 2%
activity [%] (%-substrate conversion after 20 min incubation) (WT IDH1 [3]): < 10%
activity [%] (%-substrate conversion after 20 min incubation) (WT IDH2 [4]): < 10%

Compound: O=C(O)C(=O)C1CC=CCC1C(=O)O (mixture of isomers) [compound 27]
activity [%] (%-substrate conversion after 20 min incubation) (WT IDH1 [1]): 93±1%
activity [%] (%-substrate conversion after 20 min incubation) (WT IDH2 [2]): 92±4%
activity [%] (%-substrate conversion after 20 min incubation) (R140Q IDH2): 97 ± 4%
activity [%] (%-substrate conversion after 20 min incubation) (R172K IDH2): 104 ± 8%
activity [%] (%-substrate conversion after 20 min incubation) (R132H IDH1): 94 ± 11%

Compound: O=C(O)C(=O)C1CCC(C(=O)O)CC1 (mixture of isomers) [compound 25]
activity [%] (%-substrate conversion after 20 min incubation) (WT IDH1 [1]): 104±6%
activity [%] (%-substrate conversion after 20 min incubation) (WT IDH2 [2]): 92±9%

Compound: O=C(O)C(=O)c1cscc1C(=O)O [compound 31]
activity [%] (%-substrate conversion after 20 min incubation) (WT IDH1 [1]): 103±1%
activity [%] (%-substrate conversion after 20 min incubation) (WT IDH2 [2]): 101±2%
activity [%] (%-substrate conversion after 20 min incubation) (R140Q IDH2): 113 ± 4%
activity [%] (%-substrate conversion after 20 min incubation) (R172K IDH2): 99 ± 3%
activity [%] (%-substrate conversion after 20 min incubation) (R132H IDH1): 102 ± 5%

Compound: O=C(O)C(=O)C1C2C=CC(C2)C1C(=O)O (racemic) [compound 28]
activity [%] (%-substrate conversion after 20 min incubation) (WT IDH2 [2]): 99±1%
activity [%] (%-substrate conversion after 20 min incubation) (R140Q IDH2): 114 ± 4%
activity [%] (%-substrate conversion after 20 min incubation) (R132H IDH1): 116 ± 4%

Continued, values first:

activity [%] (%-substrate conversion after 20 min incubation) (WT IDH1 [1]): 95±6%
activity [%] (%-substrate conversion after 20 min incubation) (WT IDH2 [2]): 98±1%
activity [%] (%-substrate conversion after 20 min incubation) (R140Q IDH2): 146 ± 4%
activity [%] (%-substrate conversion after 20 min incubation) (R172K IDH2): 98 ± 3%
activity [%] (%-substrate conversion after 20 min incubation) (R132H IDH1): 142 ± 14%
activity [%] (%-substrate conversion after 20 min incubation) (WT IDH1 [3]): < 10%
activity [%] (%-substrate conversion after 20 min incubation) (WT IDH2 [4]): < 10%
Compound: CC(C)(C)CCC(CC(=O)O)C(=O)C(=O)O (racemic) [compound 5]

activity [%] (%-substrate conversion after 20 min incubation) (WT IDH1 [1]): 96±1%
activity [%] (%-substrate conversion after 20 min incubation) (WT IDH2 [2]): 96±1%
activity [%] (%-substrate conversion after 20 min incubation) (R140Q IDH2): 112 ± 4%
activity [%] (%-substrate conversion after 20 min incubation) (R172K IDH2): 110 ± 10%
activity [%] (%-substrate conversion after 20 min incubation) (R132H IDH1): 92 ± 5%
Compound: CC1(C)C(C(=O)O)C1C(=O)C(=O)O (mixture of isomers) [compound 22]

activity [%] (%-substrate conversion after 20 min incubation) (WT IDH1 [1]): 93±2%
activity [%] (%-substrate conversion after 20 min incubation) (WT IDH2 [2]): 98±3%
activity [%] (%-substrate conversion after 20 min incubation) (R140Q IDH2): 125 ± 3%
activity [%] (%-substrate conversion after 20 min incubation) (R172K IDH2): 111 ± 3%
activity [%] (%-substrate conversion after 20 min incubation) (R132H IDH1): 200 ± 15%
activity [%] (%-substrate conversion after 20 min incubation) (WT IDH1 [3]): < 10%
activity [%] (%-substrate conversion after 20 min incubation) (WT IDH2 [4]): < 10%
Compound: COc1ccc(CC(CC(=O)O)C(=O)C(=O)O)cc1 (racemic) [compound 9]

activity [%] (%-substrate conversion after 20 min incubation) (WT IDH1 [1]): 95±7%
activity [%] (%-substrate conversion after 20 min incubation) (WT IDH2 [2]): 100±2%
activity [%] (%-substrate conversion after 20 min incubation) (R140Q IDH2): 119 ± 5%
activity [%] (%-substrate conversion after 20 min incubation) (R172K IDH2): 93 ± 3%
activity [%] (%-substrate conversion after 20 min incubation) (R132H IDH1): 93 ± 3%
activity [%] (%-substrate conversion after 20 min incubation) (WT IDH1 [3]): < 10%
activity [%] (%-substrate conversion after 20 min incubation) (WT IDH2 [4]): < 10%
Compound: CC(C)(C)CCC(CC(=O)C(=O)O)C(=O)O (racemic) [compound 17]

activity [%] (%-substrate conversion after 20 min incubation) (WT IDH1 [1]): 101±3%
activity [%] (%-substrate conversion after 20 min incubation) (WT IDH2 [2]): 100±1%
activity [%] (%-substrate conversion after 20 min incubation) (R140Q IDH2): 101 ± 3%
activity [%] (%-substrate conversion after 20 min incubation) (R172K IDH2): 74 ± 12%
activity [%] (%-substrate conversion after 20 min incubation) (R132H IDH1): 82 ± 3%
activity [%] (%-substrate conversion after 20 min incubation) (WT IDH1 [3]): < 10%
activity [%] (%-substrate conversion after 20 min incubation) (WT IDH2 [4]): < 10%
Compound: O=C(O)C(=O)CC(CCCc1ccccc1)C(=O)O (racemic) [compound 18]

activity [%] (%-substrate conversion after 20 min incubation) (WT IDH1 [1]): 96±1%
activity [%] (%-substrate conversion after 20 min incubation) (WT IDH2 [2]): 99±1%
activity [%] (%-substrate conversion after 20 min incubation) (R140Q IDH2): 239 ± 37%
activity [%] (%-substrate conversion after 20 min incubation) (R172K IDH2): 93 ± 1%
activity [%] (%-substrate conversion after 20 min incubation) (R132H IDH1): 182 ± 10%
activity [%] (%-substrate conversion after 20 min incubation) (WT IDH1 [3]): < 10%
activity [%] (%-substrate conversion after 20 min incubation) (WT IDH2 [4]): < 10%
Compound: O=C(O)CC(CCCc1ccccc1)C(=O)C(=O)O (racemic) [compound 6]

activity [%] (%-substrate conversion after 20 min incubation) (WT IDH1 [1]): 96±3%
activity [%] (%-substrate conversion after 20 min incubation) (WT IDH2 [2]): 100±1%
activity [%] (%-substrate conversion after 20 min incubation) (R140Q IDH2): 516 ± 40%
activity [%] (%-substrate conversion after 20 min incubation) (R172K IDH2): 106 ± 5%
activity [%] (%-substrate conversion after 20 min incubation) (R132H IDH1): 186 ± 6%
activity [%] (%-substrate conversion after 20 min incubation) (WT IDH1 [3]): < 10%
activity [%] (%-substrate conversion after 20 min incubation) (WT IDH2 [4]): < 10%
Compound: O=C(O)CC(Cc1ccc(F)cc1)C(=O)C(=O)O (racemic) [compound 8]

activity [%] (%-substrate conversion after 20 min incubation) (WT IDH1 [1]): 95±3%
activity [%] (%-substrate conversion after 20 min incubation) (WT IDH2 [2]): 98±3%
activity [%] (%-substrate conversion after 20 min incubation) (R140Q IDH2): 116 ± 4%
activity [%] (%-substrate conversion after 20 min incubation) (R172K IDH2): 97 ± 5%
activity [%] (%-substrate conversion after 20 min incubation) (R132H IDH1): 101 ± 7%
activity [%] (%-substrate conversion after 20 min incubation) (WT IDH1 [3]): < 10%
activity [%] (%-substrate conversion after 20 min incubation) (WT IDH2 [4]): < 10%
Compound: CCCC(CC(=O)C(=O)O)C(=O)O (racemic) [compound 15]

activity [%] (%-substrate conversion after 20 min incubation) (WT IDH1 [1]): 96±1%
activity [%] (%-substrate conversion after 20 min incubation) (WT IDH2 [2]): 95±2%
activity [%] (%-substrate conversion after 20 min incubation) (R140Q IDH2): 394 ± 40%
activity [%] (%-substrate conversion after 20 min incubation) (R172K IDH2): 110 ± 4%
activity [%] (%-substrate conversion after 20 min incubation) (R132H IDH1): 132 ± 3%
activity [%] (%-substrate conversion after 20 min incubation) (WT IDH1 [3]): < 10%
activity [%] (%-substrate conversion after 20 min incubation) (WT IDH2 [4]): < 10%
Compound: O=C(O)C(=O)C1CC1C(=O)O (mixture of isomers) [compound 21]

activity [%] (%-substrate conversion after 20 min incubation) (WT IDH1 [1]): 98±2%
activity [%] (%-substrate conversion after 20 min incubation) (WT IDH2 [2]): 97±3%
activity [%] (%-substrate conversion after 20 min incubation) (R140Q IDH2): 106 ± 4%
activity [%] (%-substrate conversion after 20 min incubation) (R172K IDH2): 102 ± 5%
activity [%] (%-substrate conversion after 20 min incubation) (R132H IDH1): 116 ± 17%
activity [%] (%-substrate conversion after 20 min incubation) (WT IDH1 [3]): < 10%
activity [%] (%-substrate conversion after 20 min incubation) (WT IDH2 [4]): < 10%
Compound: O=C(O)C(=O)CC(Cc1ccccc1)C(=O)O (racemic) [compound 19]
